In patent US20250101042A1, “KRAS G12D MODULATING COMPOUNDS” (Gilead Sciences, Inc., priority 2023, published 2025):

Columns and labels:
[1] = biological target: GDP-loaded KRAS G12D (Homo sapiens, UniProt P01116, G12D); test: KRAS G12D (GDP) Biochemical Assay (TR-FRET probe displacement); assay type: binding; conditions: 0.5 nM enzyme, 2 hours at room temperature
Description: Example A. KRAS G12D (GDP) Biochemical Assay
Compounds were tested for binding to GDP-loaded KRAS G12D in a 384-well assay format using a TR-FRET probe displacement assay in buffer consisting of 50 mM Hepes (pH 7.4), 150 mM NaCl, 5 mM MgCl2 and 0.005% Tween-20. […] Compounds were serially diluted (1:3) in DMSO. The LabCyte ECHO Acoustic dispenser system was used to pre-spot the assay plates (384-well Non-Binding Surface plates, Corning, Catalog #3824) with 50 nL of compound. The compounds were pre-incubated with 5 μL of 2× final enzyme concentration for 30 minutes before adding 5 μL of 2× final concentration of Eu-streptavidin and TR-FRET probe (10 μL final reaction volume). The plates were incubated at room temperature for 2 hours before measuring TR-FRET ratio on the Envision plate reader. IC50 values were defined as the compound concentration that causes a 50% decrease in TR-FRET ratio and were calculated using a sigmoidal dose-response model to generate curve fits.

[2] = test system: GP2D (KRAS G12D) cells; test: 2D Cell Viability Assay (CellTiter-Glo); assay type: cell-based; conditions: GP2d, 96 h, 4 days, CellTiter-Glo luminescence
Description: Example B. 2D Cell Viability Assay
Compounds were tested in a 384-well format for their ability to inhibit the viability of GP2D (KRAS G12D) cells in 2D assays. Compounds were serially diluted (1:3) in DMSO. The LabCyte ECHO Acoustic dispenser system was used to pre-spot assay plates with 200 nL of test molecule per well. 1000 cells/well (40 μL volume per well) in RPMI medium with 10% FBS, and Penicillin-Streptomycin-Glutamine were plated in pre-spotted 384-well plates (Greiner, Catalog #781076) on the BioTEK EL406 liquid dispenser with a 5 μL dispensing cassette (BioTek 7170011). The plates were incubated at 37° C., 5% CO2 for 4 days before addition of CellTiter-Glo (CTG) reagent and measurement of luminescence signal. EC50 values were defined as the compound concentration that causes a 50% decrease in luminescence signal and were calculated using a sigmoidal dose-response model to generate curve fits.

Chain of GDP-loaded KRAS G12D (P01116 1-188 isoform P01116-2 G12D): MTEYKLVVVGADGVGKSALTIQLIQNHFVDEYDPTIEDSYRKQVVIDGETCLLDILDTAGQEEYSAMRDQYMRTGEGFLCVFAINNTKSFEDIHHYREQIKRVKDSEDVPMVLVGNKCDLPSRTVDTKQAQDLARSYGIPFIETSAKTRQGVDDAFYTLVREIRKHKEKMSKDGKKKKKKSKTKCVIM

SMILES	IC50 [1] [nM]	EC50 [2] [nM]
C#Cc1c(F)ccc2cc(N)nc(-c3c(F)c4c5c(nc(OC[C@@]67CCCN6C[C@H](F)C7)nc5c3F)N3C[C@H]5CC[C@H](N5)[C@H]3CC4)c12 (atropisomer, axis not shown; (aR)) [Example 62, 1-((1S,4R,11S,14aR)-10,12-difluoro-8-(((2R,7aS)-2-fluorotetrahydro-1H-pyrrolizin-7a(5H)-yl)methoxy)-1,2,3,4,5,13,14,14a-octahydro-1,4-epiminoazepino[1′,2′:1,7]azepino[2,3,4-de]quinazolin-11-yl)-8-ethynyl-7-fluoroisoquinolin-3-amine]	0.03	2.5
C[C@H]1Cc2c(F)c(-c3ccc(F)c4sc(N)c(C#N)c34)c(F)c3nc(OC[C@@]45CCCN4C[C@H](F)C5)nc(c23)N2C[C@H]3CC[C@H](N3)[C@H]12 (atropisomer, axis not shown; (aS)) [Example 34, (S)-2-amino-4-((1S,4R,14S,14aS)-10,12-difluoro-8-(((2R,7aS)-2-fluorotetrahydro-1H-pyrrolizin-7a(5H)-yl)methoxy)-14-methyl-1,2,3,4,5,13,14,14a-octahydro-1,4-epiminoazepino[1′,2′:1,7]azepino[2,3,4-de]quinazolin-11-yl)-7-fluorobenzo[b]thiophene-3-carbonitrile]	0.08	0.5
C#Cc1c(F)ccc2cc(N)nc(-c3c(F)c4c5c(nc(OC[C@@]67CCCN6C[C@H](F)C7)nc5c3F)N3C[C@H]5CC[C@H](N5)[C@@H]3[C@@H](C)C4)c12 (atropisomer, axis not shown; (aS)) [Example 45, 1-((1S,4R,11S,14S,14aS)-10,12-difluoro-8-(((2R,7aS)-2-fluorotetrahydro-1H-pyrrolizin-7a(5H)-yl)methoxy)-14-methyl-1,2,3,4,5,13,14,14a-octahydro-1,4-epiminoazepino[1′,2′:1,7]azepino[2,3,4-de]quinazolin-11-yl)-8-ethynyl-7-fluoroisoquinolin-3-amine]	0.04	2.2
C#Cc1c(F)ccc2cc(N)nc(-c3c(Cl)c4c5c(nc(OC[C@@]67CCCN6C[C@H](F)C7)nc5c3F)N3C[C@H]5CC[C@H](N5)[C@@H]3[C@@H](C)C4)c12 (atropisomer, axis not shown; (aS)) [Example 48, 1-((1S,4R,11R,14S,14aS)-12-chloro-10-fluoro-8-(((2R,7aS)-2-fluorotetrahydro-1H-pyrrolizin-7a(5H)-yl)methoxy)-14-methyl-1,2,3,4,5,13,14,14a-octahydro-1,4-epiminoazepino[1′,2′:1,7]azepino[2,3,4-de]quinazolin-11-yl)-8-ethynyl-7-fluoroisoquinolin-3-amine]	–	8.1
C[C@H]1Cc2c(Cl)c(-c3ccc(F)c4sc(N)c(C#N)c34)c(F)c3nc(OC[C@@]45CCCN4C[C@H](F)C5)nc(c23)N2C[C@H]3CC[C@H](N3)[C@H]12 (atropisomer, axis not shown; (aS)) [Example 52, 2-amino-4-((1S,4R,11R,14S,14aS)-12-chloro-10-fluoro-8-(((2R,7aS)-2-fluorotetrahydro-1H-pyrrolizin-7a(5H)-yl)methoxy)-14-methyl-1,2,3,4,5,13,14,14a-octahydro-1,4-epiminoazepino[1′,2′:1,7]azepino[2,3,4-de]quinazolin-11-yl)-7-fluorobenzo[b]thiophene-3-carbonitrile]	0.03	–
C[C@H]1Cc2c(Cl)c(-c3ncc(F)c4sc(N)c(C#N)c34)c(F)c3nc(OC[C@@]45CCCN4C[C@H](F)C5)nc(c23)N2C[C@H]3CC[C@H](N3)[C@H]12 (atropisomer, axis not shown; (aS)) [Example 56, 2-amino-4-((1S,4R,11S,14S,14aS)-12-chloro-10-fluoro-8-(((2R,7aS)-2-fluorotetrahydro-1H-pyrrolizin-7a(5H)-yl)methoxy)-14-methyl-1,2,3,4,5,13,14,14a-octahydro-1,4-epiminoazepino[1′,2′:1,7]azepino[2,3,4-de]quinazolin-11-yl)-7-fluorothieno[3,2-c]pyridine-3-carbonitrile]	0.11	2
